Experimental data: US20050282743A1, “Molecular interactions in cells” (Arbor Vita Corporation, priority 2001, published 2005)

What was measured:
Assay in all cases: G' assay (10 uM PL peptide), results of TABLE 7 and TABLE 12
Type in all cases: binding
[1] = molecular target: T1, PDZ protein (GST-PDZ fusion) (Homo sapiens, UniProt Q12923)
T1 construct: made in house; host or cells: E. coli (DH5alpha, BL21 or JM109)
Method in brief: (§1)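 Binding classes derive from A450 nm of bound biotin-tagged PL peptide. A score of 5 needs A450 above 4 in more than two repeats.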

[2] = molecular target: T2, PDZ protein (GST-PDZ fusion) (Homo sapiens, UniProt Q5TCQ9)
T2 construct: made in house; host or cells: E. coli (DH5alpha, BL21 or JM109)
T2 sequence (Q5TCQ9 1-1481): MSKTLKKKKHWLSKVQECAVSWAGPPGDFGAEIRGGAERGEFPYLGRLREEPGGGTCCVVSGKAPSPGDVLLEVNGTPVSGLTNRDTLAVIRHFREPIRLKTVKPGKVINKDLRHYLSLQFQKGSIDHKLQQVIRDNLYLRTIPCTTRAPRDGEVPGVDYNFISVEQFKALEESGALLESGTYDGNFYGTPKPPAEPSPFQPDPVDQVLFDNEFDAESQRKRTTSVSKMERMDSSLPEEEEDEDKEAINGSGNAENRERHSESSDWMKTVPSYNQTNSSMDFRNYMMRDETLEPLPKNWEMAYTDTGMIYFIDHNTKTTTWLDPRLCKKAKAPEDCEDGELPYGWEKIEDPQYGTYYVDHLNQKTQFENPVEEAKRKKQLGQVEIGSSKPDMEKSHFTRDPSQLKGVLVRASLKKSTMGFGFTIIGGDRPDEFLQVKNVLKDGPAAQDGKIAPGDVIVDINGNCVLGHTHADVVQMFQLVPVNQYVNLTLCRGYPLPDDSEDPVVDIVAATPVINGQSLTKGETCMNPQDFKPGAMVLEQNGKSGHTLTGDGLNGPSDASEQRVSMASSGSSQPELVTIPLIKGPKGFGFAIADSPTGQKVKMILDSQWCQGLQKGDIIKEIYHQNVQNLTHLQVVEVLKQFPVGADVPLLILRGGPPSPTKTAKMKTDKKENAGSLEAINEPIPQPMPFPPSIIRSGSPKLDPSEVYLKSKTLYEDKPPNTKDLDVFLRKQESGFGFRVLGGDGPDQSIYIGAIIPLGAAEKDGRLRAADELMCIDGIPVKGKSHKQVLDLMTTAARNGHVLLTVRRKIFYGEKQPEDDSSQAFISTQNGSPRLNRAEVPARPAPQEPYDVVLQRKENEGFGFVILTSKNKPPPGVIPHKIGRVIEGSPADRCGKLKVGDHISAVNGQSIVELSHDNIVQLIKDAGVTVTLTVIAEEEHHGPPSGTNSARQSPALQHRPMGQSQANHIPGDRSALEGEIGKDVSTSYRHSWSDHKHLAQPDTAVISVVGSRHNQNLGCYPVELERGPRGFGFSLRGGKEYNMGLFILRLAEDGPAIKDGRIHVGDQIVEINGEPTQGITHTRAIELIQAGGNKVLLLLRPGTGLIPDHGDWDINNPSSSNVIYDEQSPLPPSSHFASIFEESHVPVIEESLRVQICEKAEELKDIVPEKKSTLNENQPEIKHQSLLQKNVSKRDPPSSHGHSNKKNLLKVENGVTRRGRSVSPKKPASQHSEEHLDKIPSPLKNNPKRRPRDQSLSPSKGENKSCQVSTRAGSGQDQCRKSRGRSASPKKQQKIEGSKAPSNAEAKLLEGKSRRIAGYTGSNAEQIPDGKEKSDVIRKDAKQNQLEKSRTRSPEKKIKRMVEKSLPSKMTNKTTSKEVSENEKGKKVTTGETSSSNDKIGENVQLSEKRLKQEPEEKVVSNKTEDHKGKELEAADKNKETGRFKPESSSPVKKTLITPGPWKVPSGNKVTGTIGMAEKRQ
Method in brief: as §1

[3] = molecular target: T3, PDZ protein (GST-PDZ fusion) (Homo sapiens, UniProt Q6P0Q8)
T3 construct: made in house; host or cells: E. coli (DH5alpha, BL21 or JM109)
Method in brief: as §1

[4] = tested on: PDZ protein (GST-PDZ fusion)
Method in brief: as §1

T1 sequence (Q12923 whole entry, the tested form may be a part): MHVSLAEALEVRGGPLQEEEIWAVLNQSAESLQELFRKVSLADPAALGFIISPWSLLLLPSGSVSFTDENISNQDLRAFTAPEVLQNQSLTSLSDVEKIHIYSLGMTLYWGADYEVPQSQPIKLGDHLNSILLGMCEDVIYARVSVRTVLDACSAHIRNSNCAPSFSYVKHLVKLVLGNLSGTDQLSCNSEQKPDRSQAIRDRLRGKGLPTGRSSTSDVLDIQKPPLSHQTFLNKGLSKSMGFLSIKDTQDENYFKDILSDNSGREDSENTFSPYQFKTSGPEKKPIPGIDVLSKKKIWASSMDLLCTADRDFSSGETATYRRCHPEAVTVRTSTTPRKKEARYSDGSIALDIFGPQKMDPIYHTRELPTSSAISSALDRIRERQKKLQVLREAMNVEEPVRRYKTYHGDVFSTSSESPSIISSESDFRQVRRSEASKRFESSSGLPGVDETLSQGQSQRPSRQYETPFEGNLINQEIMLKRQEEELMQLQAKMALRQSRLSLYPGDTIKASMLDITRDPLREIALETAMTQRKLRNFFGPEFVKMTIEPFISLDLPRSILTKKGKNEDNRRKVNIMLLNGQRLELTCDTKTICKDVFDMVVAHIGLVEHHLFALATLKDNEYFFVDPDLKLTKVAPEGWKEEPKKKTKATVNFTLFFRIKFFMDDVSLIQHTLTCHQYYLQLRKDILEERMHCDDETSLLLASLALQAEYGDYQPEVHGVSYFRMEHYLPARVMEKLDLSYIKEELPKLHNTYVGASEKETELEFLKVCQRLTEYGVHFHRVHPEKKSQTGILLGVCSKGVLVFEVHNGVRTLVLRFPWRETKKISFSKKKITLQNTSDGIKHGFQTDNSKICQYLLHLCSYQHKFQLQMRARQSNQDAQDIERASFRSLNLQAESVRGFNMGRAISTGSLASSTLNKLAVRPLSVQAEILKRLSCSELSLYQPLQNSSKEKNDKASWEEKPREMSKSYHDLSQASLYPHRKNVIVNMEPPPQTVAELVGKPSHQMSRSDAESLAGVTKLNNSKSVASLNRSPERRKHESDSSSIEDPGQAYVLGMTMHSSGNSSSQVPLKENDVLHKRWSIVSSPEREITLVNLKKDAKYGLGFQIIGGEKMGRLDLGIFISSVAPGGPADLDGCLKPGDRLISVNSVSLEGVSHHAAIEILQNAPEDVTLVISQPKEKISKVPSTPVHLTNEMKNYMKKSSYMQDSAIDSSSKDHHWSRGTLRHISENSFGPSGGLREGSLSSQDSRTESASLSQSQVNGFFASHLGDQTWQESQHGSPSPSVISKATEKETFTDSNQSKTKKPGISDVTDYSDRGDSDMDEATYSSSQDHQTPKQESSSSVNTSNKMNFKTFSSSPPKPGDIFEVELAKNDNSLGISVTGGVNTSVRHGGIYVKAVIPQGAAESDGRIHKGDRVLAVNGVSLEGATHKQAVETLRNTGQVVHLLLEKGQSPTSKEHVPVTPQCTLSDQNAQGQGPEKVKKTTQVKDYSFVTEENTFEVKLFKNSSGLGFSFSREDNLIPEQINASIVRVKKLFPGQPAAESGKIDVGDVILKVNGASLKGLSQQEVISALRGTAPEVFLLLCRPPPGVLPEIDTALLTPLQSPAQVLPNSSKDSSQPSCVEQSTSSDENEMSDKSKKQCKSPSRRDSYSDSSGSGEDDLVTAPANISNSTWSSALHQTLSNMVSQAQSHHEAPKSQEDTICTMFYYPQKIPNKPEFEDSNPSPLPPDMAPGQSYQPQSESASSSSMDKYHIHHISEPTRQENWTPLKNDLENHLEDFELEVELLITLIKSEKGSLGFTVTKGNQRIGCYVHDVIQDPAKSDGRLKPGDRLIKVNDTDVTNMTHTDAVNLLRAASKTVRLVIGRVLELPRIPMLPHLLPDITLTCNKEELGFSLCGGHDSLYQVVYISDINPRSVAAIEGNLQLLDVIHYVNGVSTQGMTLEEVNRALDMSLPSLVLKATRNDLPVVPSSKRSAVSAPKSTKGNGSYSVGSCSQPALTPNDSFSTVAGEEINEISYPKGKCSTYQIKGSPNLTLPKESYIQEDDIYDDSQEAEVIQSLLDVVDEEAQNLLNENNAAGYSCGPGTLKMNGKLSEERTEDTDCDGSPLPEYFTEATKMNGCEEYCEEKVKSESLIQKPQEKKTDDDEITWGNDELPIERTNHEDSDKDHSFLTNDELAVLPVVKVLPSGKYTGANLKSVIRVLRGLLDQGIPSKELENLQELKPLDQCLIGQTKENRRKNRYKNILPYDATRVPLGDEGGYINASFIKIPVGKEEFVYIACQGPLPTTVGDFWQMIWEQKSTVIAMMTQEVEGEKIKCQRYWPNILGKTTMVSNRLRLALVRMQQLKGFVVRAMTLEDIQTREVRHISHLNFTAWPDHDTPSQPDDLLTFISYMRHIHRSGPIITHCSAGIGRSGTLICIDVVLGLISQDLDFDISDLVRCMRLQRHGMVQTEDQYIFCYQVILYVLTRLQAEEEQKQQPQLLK
T3 sequence (Q6P0Q8 whole entry, the tested form may be a part): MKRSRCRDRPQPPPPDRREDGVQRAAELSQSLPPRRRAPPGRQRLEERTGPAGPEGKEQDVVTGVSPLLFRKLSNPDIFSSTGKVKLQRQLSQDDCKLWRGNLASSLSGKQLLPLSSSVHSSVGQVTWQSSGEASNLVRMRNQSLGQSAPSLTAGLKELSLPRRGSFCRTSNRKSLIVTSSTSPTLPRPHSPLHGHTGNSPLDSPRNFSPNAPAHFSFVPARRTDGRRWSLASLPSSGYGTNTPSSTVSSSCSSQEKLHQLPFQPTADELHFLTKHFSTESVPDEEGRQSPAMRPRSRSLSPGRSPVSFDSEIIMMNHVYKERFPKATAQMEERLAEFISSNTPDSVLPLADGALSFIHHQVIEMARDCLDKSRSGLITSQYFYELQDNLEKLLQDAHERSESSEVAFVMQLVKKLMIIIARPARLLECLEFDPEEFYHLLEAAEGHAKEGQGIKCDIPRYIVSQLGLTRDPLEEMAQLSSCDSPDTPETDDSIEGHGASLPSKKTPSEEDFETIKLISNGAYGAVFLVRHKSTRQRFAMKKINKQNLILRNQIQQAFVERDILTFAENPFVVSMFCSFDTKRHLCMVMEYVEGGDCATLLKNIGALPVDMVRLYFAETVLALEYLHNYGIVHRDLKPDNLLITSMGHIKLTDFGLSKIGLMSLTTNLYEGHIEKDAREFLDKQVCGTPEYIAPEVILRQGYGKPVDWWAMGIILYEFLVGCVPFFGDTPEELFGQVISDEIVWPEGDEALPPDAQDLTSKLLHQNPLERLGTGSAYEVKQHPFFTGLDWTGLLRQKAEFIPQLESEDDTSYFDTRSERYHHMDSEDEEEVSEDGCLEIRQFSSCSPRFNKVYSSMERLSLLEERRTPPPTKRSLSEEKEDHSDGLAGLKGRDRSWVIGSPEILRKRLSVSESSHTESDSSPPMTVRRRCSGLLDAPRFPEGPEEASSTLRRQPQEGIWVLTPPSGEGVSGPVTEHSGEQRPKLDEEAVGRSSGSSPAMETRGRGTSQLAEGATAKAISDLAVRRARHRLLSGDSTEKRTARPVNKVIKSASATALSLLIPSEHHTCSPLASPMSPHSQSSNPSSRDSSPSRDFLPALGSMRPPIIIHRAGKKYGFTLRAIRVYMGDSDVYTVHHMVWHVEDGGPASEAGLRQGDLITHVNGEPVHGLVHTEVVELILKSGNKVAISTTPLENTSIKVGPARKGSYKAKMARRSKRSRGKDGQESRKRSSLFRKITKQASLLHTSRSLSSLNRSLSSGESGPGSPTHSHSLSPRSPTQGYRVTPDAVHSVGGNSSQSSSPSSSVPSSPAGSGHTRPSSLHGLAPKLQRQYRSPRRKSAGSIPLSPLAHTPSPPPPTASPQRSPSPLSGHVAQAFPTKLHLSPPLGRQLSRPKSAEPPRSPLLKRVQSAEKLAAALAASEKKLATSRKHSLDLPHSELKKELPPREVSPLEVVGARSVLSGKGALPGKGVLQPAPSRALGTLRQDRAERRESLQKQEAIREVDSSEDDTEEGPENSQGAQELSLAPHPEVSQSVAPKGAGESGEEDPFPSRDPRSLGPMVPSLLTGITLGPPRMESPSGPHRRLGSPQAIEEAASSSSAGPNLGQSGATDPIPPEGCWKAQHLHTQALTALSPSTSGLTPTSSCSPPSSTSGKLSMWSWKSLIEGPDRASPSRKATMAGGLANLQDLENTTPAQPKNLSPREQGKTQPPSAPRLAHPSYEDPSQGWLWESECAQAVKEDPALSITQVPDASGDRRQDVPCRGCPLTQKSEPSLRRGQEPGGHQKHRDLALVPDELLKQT

SMILES: CC[C@H](C)[C@H](NC(=O)[C@H](CCCCN)NC(=O)[C@@H](NC(=O)[C@H](CO)NC(=O)[C@@H]1CCCN1C(=O)[C@H](Cc1ccccc1)NC(=O)[C@@H](NC(=O)[C@@H](NC(=O)[C@H](CCCNC(=N)N)NC(=O)[C@H](CCC(=O)O)NC(=O)[C@H](CC(C)C)NC(=O)[C@H](CC(C)C)NC(=O)[C@H](CC(C)C)NC(=O)[C@@H](NC(=O)CNC(=O)[C@@H](NC(=O)CCCC[C@@H]1SC[C@@H]2NC(=O)N[C@@H]21)C(C)C)[C@@H](C)O)C(C)C)[C@@H](C)CC)C(C)C)C(=O)N[C@@H](C)C(=O)N[C@H](C(=O)N[C@@H](CC(C)C)C(=O)N[C@H](C(=O)O)C(C)C)[C@@H](C)O [Adenovirus E4 Type9]
- Classification ([1]; PDZ PTPL-1, PDZ Domain 2, Protein Optimal Conc 5): 3 (A450 nm 2-3)
- Classification ([1]; PDZ PTPL-1, PDZ Domain 4, PL peptide 10 uM): 4 (A450 nm 3-4)
- Classification ([2]; PDZ KIAA1634, PDZ Domain 1, PL peptide 10 uM): 5 (A450 nm of 4 more than 2× repeated)
- Classification ([2]; PDZ KIAA1634, PDZ Domain 2, Protein Optimal Conc 5): 5 (A450 nm of 4 more than 2× repeated)
- Classification ([2]; PDZ KIAA1634, PDZ Domain 4, Protein Optimal Conc 5): 4 (A450 nm 3-4)
- Classification ([3]; PDZ KIAA0807(S), PDZ Domain 1, Protein Optimal Conc 5): 3 (A450 nm 2-3)
- Classification ([3]; PDZ KIAA807 (domain not given), PL peptide 10 uM): 4 (A450 nm 3-4)
- Classification ([4]; PDZ BAI-1, PDZ Domain 2, Protein Optimal Conc 0.3): 5 (A450 nm of 4 more than 2× repeated)
- Classification ([4]; PDZ BAI-1, PDZ Domain 3, Protein Optimal Conc 0.5): 5 (A450 nm of 4 more than 2× repeated)
- Classification ([4]; PDZ BAI-1, PDZ Domain 4, Protein Optimal Conc 0.3): 5 (A450 nm of 4 more than 2× repeated)
- Classification ([4]; PDZ BAI-1, PDZ Domain 6, PL peptide 10 uM): 1 (A450 nm 0-1)
- Classification ([4]; PDZ Connector Enhancer, PDZ Domain 1, Protein Optimal Conc 5): 3 (A450 nm 2-3)
- Classification ([4]; PDZ FLJ 00011, PDZ Domain 1, PL peptide 10 uM): 1 (A450 nm 0-1)
- Classification ([4]; PDZ HEMBA 1003117, PDZ Domain 1, Protein Optimal Conc 5): 3 (A450 nm 2-3)
